{
  "source": "patent US10406169B2",
  "about": "“Methods of monitoring estriol therapy” (The Regents of the University of California, priority 2015, dated 2019)",
  "key": {"[1]": {"test_system": "relapsing-remitting multiple sclerosis", "assay": "MRI brain volumes (pairwise Jacobian integration)", "format": "in vivo, human", "experimental": "Mixed effects negative binomial regression model and linear mixed effects model were used to compare enhancing lesion volume (log-transformed) between treatment groups at all follow-ups, and mixed effects logistic model was used to compare the number of subjects positive for gadolinium enhancing lesions. Linear mixed effects model was carried out to compare the percent change in whole gray matter and cortical gray matter between treatment groups. For the exploratory endpoints of EDSS, PASAT, fatigue, depression, quality of life and brain volume measures, linear mixed effects model was used to compare treatment groups at 12 and 24 months.\nDual-echo fast spin echo: TR10000, TE12/95, 50 slices, 1×1×3 mm. Fluid attenuated inversion recovery (FLAIR): TR10380, TE88, TI88, TI2500, 50 slices, 1×1×3 mm. Minor changes were allowed to accommodate different platforms and field strengths at each site. MRI data in Dicom format were fully anonymized prior to transfer and then uploaded to the central MRI reading center database. Prior to study onset, each site provided a dummy scan utilizing the standardized sequences for review by the central MRI reading center to verify scan quality and fidelity. Quality control was maintained at each site using standard procedures for clinical scanners (daily phantoms, stability testing). Quarterly phantoms were collected from 12 of the 15 sites, most using the standard American College of Radiology (ACR) phatom. One site upgraded from a Siemens 1.5T to a 3.0T in November 2013, resulting in the acquisition of one month 24 scan on the new scanner. One site upgraded from a Phillips Achieva 3.0T to a Pillips Intera 3.0T after the first subject completed month 24. All subsequent studies were performed on the Intera.\nMRI brain, whole gray matter, whole white matter and cortical gray matter volumes were determined using a pairwise Jacobian integration (PJI) method. Pre-processing for structural T1-weighted images included 1) N3 non-uniformity correction, 2) histogram-based intensity normalization, 3) linear standard space registration using ICBM 2009c nonlinear symmetric template, 4) patch-based brain extraction, and 5) lesion-inpainting. Inputs to PJI were a pair of baseline and follow-up pre-processed structural T1-weighed images. The PJI consisted of 1) linear skull-constrained symmetric registration, 2) halfway transformation and resampling, 3) nonlinear symmetric registration using ANTS, and 4) voxelwise Jacobian determinant calculation on the warp field. Whole gray matter and whole white matter tissue masks were generated by SPM8 Segment function. Additional nonlocal means denoising was applied. For whole brain tissue masks, the whole gray matter and whole white matter masks were combined. For cortical gray matter mask, a standard cortical mask was nonlinearly transformed and merged with gray matter mask. The standard template was the ICBM (ICBM 2009c nonlinear symmetric version), and the nonlinear registration was performed by ANTS. Finally, the Jacobian determinants were averaged within the masks for percent volume change in cortical gray matter, whole gray matter, whole white matter, and whole brain."}, "[2]": {"assay": "Serum estriol levels in the clinical trial", "format": "in vivo, human", "text": "Safety assessments, including clinical, blood laboratory safety testing and assessments of estriol levels, occurred at months 0, 3, 6, 12, 18, and 24. On study blood tests included complete blood count (CBC) with differential and platelets; chemistry panel including sodium, potassium, creatinine, BUN, glucose, total protein, albumin, bilirubin (total), alkaline phosphatase, AST (SGOT), and ALT (SGPT), and lipid profile (HDL, LDL and triglycerides, cholesterol. Gynecologic exams were done at month 0, 6, 18 and at month 24 exit, with uterine ultrasounds at months 6, 18 and at month 24 exit. Mammograms were done in screening and at month 24 exit. Adverse event analysis was based on the percentage of patients who discontinued the study and the percentage of patients who discontinued the study possibly due to adverse events.\nFree estriol levels were also measured and followed a similar pattern of change within individuals as total levels, with absolute free levels a fraction of the magnitude of the absolute total levels as expected."}, "[3]": {"details": "Baseline to 12 months, all patients"}, "[4]": {"details": "Baseline to 12 months, all patients, listed as Placebo+GA"}, "[5]": {"details": "Baseline to 12 months, patients with enhancing lesions at baseline"}, "[6]": {"details": "Baseline to 12 months, patients without enhancing lesions at baseline"}, "[7]": {"details": "Baseline to 12 months, patients without enhancing lesions at baseline, listed as Placebo+GA"}, "[8]": {"details": "Baseline to 24 months, all patients"}, "[9]": {"details": "Baseline to 24 months, patients with enhancing lesions at baseline"}, "[10]": {"details": "Baseline to 24 months, patients without enhancing lesions at baseline"}},
  "data": [
    {"substance": "glatiramer acetate [Placebo + GA]", "values": [
      {"measurement": "Cortical gray matter baseline volume", "setting": "[1]; Baseline", "value": "761 ± 42", "unit": "cc"},
      {"measurement": "White matter baseline volume", "setting": "[1]; Baseline", "value": "640 ± 32", "unit": "cc"},
      {"measurement": "Whole brain baseline volume", "setting": "[1]; Baseline", "value": "1602 ± 51", "unit": "cc"},
      {"measurement": "Whole gray matter baseline volume", "setting": "[1]; Baseline", "value": "926 ± 52", "unit": "cc"},
      {"measurement": "Cortical gray matter volume % change, Mean ± SE", "setting": "[1]; [3]", "value": "−0.74 ± 0.81, %"},
      {"measurement": "Cortical gray matter volume % change, median", "setting": "[1]; [3]", "value": "−0.69", "unit": "%"},
      {"measurement": "White matter volume % change, Mean ± SE", "setting": "[1]; [3]", "value": "−0.21 ± 0.82, %"},
      {"measurement": "White matter volume % change, median", "setting": "[1]; [3]", "value": "−0.15", "unit": "%"},
      {"measurement": "Whole brain volume % change, Mean ± SE", "setting": "[1]; [3]", "value": "−0.49 ± 0.63, %"},
      {"measurement": "Whole brain volume % change, median", "setting": "[1]; [3]", "value": "−0.43", "unit": "%"},
      {"measurement": "Whole gray matter volume % change, Mean ± SE", "setting": "[1]; [3]", "value": "−0.68 ± 0.71, %"},
      {"measurement": "Whole gray matter volume % change, median", "setting": "[1]; [3]", "value": "−0.66", "unit": "%"},
      {"measurement": "Cortical gray matter volume % change, Mean ± SE", "setting": "[1]; [4]", "value": "−0.74", "unit": "%"},
      {"measurement": "Whole gray matter volume % change, Mean ± SE", "setting": "[1]; [4]", "value": "−0.68", "unit": "%"},
      {"measurement": "Cortical gray matter volume % change, Mean ± SE", "setting": "[1]; [5]", "value": "−0.67 ± 0.72, %"},
      {"measurement": "Cortical gray matter volume % change, median", "setting": "[1]; [5]", "value": "−0.69", "unit": "%"},
      {"measurement": "White matter volume % change, Mean ± SE", "setting": "[1]; [5]", "value": "−0.36 ± 1.06, %"},
      {"measurement": "White matter volume % change, median", "setting": "[1]; [5]", "value": "−0.14", "unit": "%"},
      {"measurement": "Whole gray matter volume % change, Mean ± SE", "setting": "[1]; [5]", "value": "−0.65 ± 0.64, %"},
      {"measurement": "Whole gray matter volume % change, median", "setting": "[1]; [5]", "value": "−0.64", "unit": "%"},
      {"measurement": "Cortical gray matter volume % change, Mean ± SE", "setting": "[1]; [6]", "value": "−0.76 ± 0.85, %"},
      {"measurement": "Cortical gray matter volume % change, median", "setting": "[1]; [6]", "value": "−0.73", "unit": "%"},
      {"measurement": "White matter volume % change, Mean ± SE", "setting": "[1]; [6]", "value": "−0.15 ± 0.71, %"},
      {"measurement": "White matter volume % change, median", "setting": "[1]; [6]", "value": "−0.15", "unit": "%"},
      {"measurement": "Whole gray matter volume % change, Mean ± SE", "setting": "[1]; [6]", "value": "−0.70 ± 0.74, %"},
      {"measurement": "Whole gray matter volume % change, median", "setting": "[1]; [6]", "value": "−0.66", "unit": "%"},
      {"measurement": "Cortical gray matter volume % change, Mean ± SE", "setting": "[1]; [7]", "value": "−0.76", "unit": "%"},
      {"measurement": "Whole gray matter volume % change, Mean ± SE", "setting": "[1]; [7]", "value": "−0.70", "unit": "%"},
      {"measurement": "Cortical gray matter volume % change, Mean ± SE", "setting": "[1]; [8]", "value": "−1.05 ± 0.86, %"},
      {"measurement": "Cortical gray matter volume % change, median", "setting": "[1]; [8]", "value": "−0.94", "unit": "%"},
      {"measurement": "White matter volume % change, Mean ± SE", "setting": "[1]; [8]", "value": "−0.52 ± 1.12, %"},
      {"measurement": "White matter volume % change, median", "setting": "[1]; [8]", "value": "−0.54", "unit": "%"},
      {"measurement": "Whole brain volume % change, Mean ± SE", "setting": "[1]; [8]", "value": "−0.77 ± 0.72, %"},
      {"measurement": "Whole brain volume % change, median", "setting": "[1]; [8]", "value": "−0.88", "unit": "%"},
      {"measurement": "Whole gray matter volume % change, Mean ± SE", "setting": "[1]; [8]", "value": "−0.95 ± 0.75, %"},
      {"measurement": "Whole gray matter volume % change, median", "setting": "[1]; [8]", "value": "−0.93", "unit": "%"},
      {"measurement": "Cortical gray matter volume % change, Mean ± SE", "setting": "[1]; [9]", "value": "−0.82 ± 0.80, %"},
      {"measurement": "Cortical gray matter volume % change, median", "setting": "[1]; [9]", "value": "−0.93", "unit": "%"},
      {"measurement": "White matter volume % change, Mean ± SE", "setting": "[1]; [9]", "value": "−0.62 ± 0.97, %"},
      {"measurement": "White matter volume % change, median", "setting": "[1]; [9]", "value": "−0.84", "unit": "%"},
      {"measurement": "Whole gray matter volume % change, Mean ± SE", "setting": "[1]; [9]", "value": "−0.82 ± 0.70, %"},
      {"measurement": "Whole gray matter volume % change, median", "setting": "[1]; [9]", "value": "−0.92", "unit": "%"},
      {"measurement": "Cortical gray matter volume % change, Mean ± SE", "setting": "[1]; [10]", "value": "−1.12 ± 0.88, %"},
      {"measurement": "Cortical gray matter volume % change, median", "setting": "[1]; [10]", "value": "−0.94", "unit": "%"},
      {"measurement": "White matter volume % change, Mean ± SE", "setting": "[1]; [10]", "value": "−0.46 ± 1.17, %"},
      {"measurement": "White matter volume % change, median", "setting": "[1]; [10]", "value": "−0.48", "unit": "%"},
      {"measurement": "Whole gray matter volume % change, Mean ± SE", "setting": "[1]; [10]", "value": "−0.98 ± 0.77, %"},
      {"measurement": "Whole gray matter volume % change, median", "setting": "[1]; [10]", "value": "−0.92", "unit": "%"},
      {"measurement": "Serum total estriol level, Mean ± SD", "setting": "[2]; Month 0", "value": "2.1 ± 2.3", "unit": "ng/mL"},
      {"measurement": "Serum total estriol level, Median", "setting": "[2]; Month 0", "value": 1.6, "unit": "ng/mL"},
      {"measurement": "Serum estriol concentrations (in words)", "setting": "[2]; Month 3", "value": "did not exceed the estriol assay detection limit"},
      {"measurement": "Serum total estriol level, Mean ± SD", "setting": "[2]; Month 3", "value": "2.1 ± 1.6", "unit": "ng/mL"},
      {"measurement": "Serum total estriol level, Median", "setting": "[2]; Month 3", "value": 1.8, "unit": "ng/mL"},
      {"measurement": "Serum total estriol level, Mean ± SD", "setting": "[2]; Month 6", "value": "1.9 ± 1.4", "unit": "ng/mL"},
      {"measurement": "Serum total estriol level, Median", "setting": "[2]; Month 6", "value": 1.8, "unit": "ng/mL"},
      {"measurement": "Serum total estriol level, Mean ± SD", "setting": "[2]; Month 12", "value": "2.0 ± 1.4", "unit": "ng/mL"},
      {"measurement": "Serum total estriol level, Median", "setting": "[2]; Month 12", "value": 1.8, "unit": "ng/mL"},
      {"measurement": "Serum total estriol level, Mean ± SD", "setting": "[2]; Month 18", "value": "1.8 ± 1.2", "unit": "ng/mL"},
      {"measurement": "Serum total estriol level, Median", "setting": "[2]; Month 18", "value": 1.8, "unit": "ng/mL"},
      {"measurement": "Serum total estriol level, Mean ± SD", "setting": "[2]; Month 24", "value": "1.8 ± 1.1", "unit": "ng/mL"},
      {"measurement": "Serum total estriol level, Median", "setting": "[2]; Month 24", "value": 1.6, "unit": "ng/mL"}
    ]}
  ]
}
